Laboratory results taken from the NIST ThermoML archive (doi:10.1016/j.fluid.2015.10.001).
Where “and” joins values, the source holds several entries; their conditions need not be identical. Equal entries are not always repeated.

How the values were obtained:
[1] = Molar enthalpy of transition or fusion; conditions: Crystal; DSC
[2] = Crystal; for vapor or sublimation pressure: Transpiration method; for Normal melting temperature: DTA

O=C(O)c1ccccc1F [2-fluorobenzoic acid]
Conditions	Molar enthalpy of transition or fusion [kcal/mol]	Normal melting temperature [°C]
[1]	4.85	–
[2]	–	123.6

[2]
Conditions	vapor or sublimation pressure [kPa]
333.9 K	0.00321
334.6 K	0.0035
335.9 K	0.00389
337 K	0.00451
338.9 K	0.00528
340.2 K	0.00614
342 K	0.00738
342.2 K	0.00734
345 K	0.0094
346.6 K	0.01115
348.3 K	0.0132
351.2 K	0.01709
352.4 K	0.01997
353.2 K	0.02087
354.2 K	0.02242
356.5 K	0.02903
358.2 K	0.03398
358.3 K	0.0322
360.5 K	0.03997
361.3 K	0.04428
363.4 K	0.05001
364.5 K	0.05529
367.2 K	0.07204

O=C(O)c1ccccc1I [2-iodobenzoic acid]
Conditions	Molar enthalpy of transition or fusion [kcal/mol]	Normal melting temperature [°C]
[1]	6.6	–
[2]	–	161.4

[2]
Conditions	vapor or sublimation pressure
362.4 K	0.00113 kPa
367.6 K	0.00188 kPa
376.2 K	0.00432 kPa
381.9 K	0.00744 kPa
386.9 K	0.01099 kPa
393.2 K	0.02004 kPa and 0.01875 kPa
397.2 K	0.02759 kPa
399.2 K	0.03193 kPa
403.2 K	0.0431 kPa and 0.04492 kPa
407.3 K	0.06078 kPa
411.5 K	0.08737 kPa

O=C(O)c1cccc(F)c1 [3-fluorobenzoic acid]
Conditions	Molar enthalpy of transition or fusion [kcal/mol]	Normal melting temperature [°C]
[1]	4.42	–
[2]	–	122.8

[2]
Conditions	vapor or sublimation pressure [kPa]
331.9 K	0.00407
334.9 K	0.00564
338 K	0.00734
342.1 K	0.01139
345 K	0.01472
347.1 K	0.01783
350.4 K	0.02353
353.3 K	0.03091
356.5 K	0.04119
359.5 K	0.0543
362.6 K	0.06845

O=C(O)c1cccc(I)c1 [3-iodobenzoic acid]
Conditions	Molar enthalpy of transition or fusion [kcal/mol]	Normal melting temperature [°C]
[1]	6.62	–
[2]	–	185.8

[2]
Conditions	vapor or sublimation pressure [kPa]
366.6 K	0.00121
370.4 K	0.00171
375.8 K	0.00281
380.8 K	0.00438
386 K	0.00688
389.1 K	0.00894
391.9 K	0.01174
395.1 K	0.01521
399.2 K	0.02068
404.1 K	0.03146
404.2 K	0.03145
409 K	0.04684
411.4 K	0.05339
414.2 K	0.06461
417.5 K	0.08451
422 K	0.1194

O=C(O)c1ccc(F)cc1 [4-fluorobenzoic acid]
Conditions	Molar enthalpy of transition or fusion [kcal/mol]	Normal melting temperature [°C]
[1]	5.16	–
[2]	–	183.0

[2]
Conditions	vapor or sublimation pressure [kPa]
343 K	0.00456
346.2 K	0.00612
349.3 K	0.00844
355.1 K	0.01384
356.5 K	0.01539
359.5 K	0.02097
363.7 K	0.02861
365.6 K	0.03441
366.9 K	0.03729
371.8 K	0.05523
375.8 K	0.07688
380.9 K	0.1162
385.2 K	0.1594
386.2 K	0.1701

O=C(O)c1ccc(I)cc1 [4-iodobenzoic acid]
Conditions	Molar enthalpy of transition or fusion [kcal/mol]	Normal melting temperature [°C]
[1]	8.05	–
[2]	–	270.8

[2]
Conditions	vapor or sublimation pressure [kPa]
388.9 K	0.00205
391.1 K	0.00244
403.3 K	0.00654
409.4 K	0.01081
415.3 K	0.01743
421.5 K	0.02673
424.5 K	0.03413
427.4 K	0.04118
433.5 K	0.06312
